{"source": "patent US20180193361A1", "about": "“GUT ANTI-INFLAMMATORY AGENTS FOR REGULATION OF HIGH BLOOD GLUCOSE LEVELS” (UNIVERSITY HEALTH NETWORK, priority 2015, published 2018)", "key": {"NCD-fed C57BL/6 mice": {"system": "NCD-fed C57BL/6 mice", "assay": "Metabolic studies, NCD or NCD 5-ASA", "format": "in vivo", "details": "NCD vs NCD 5-ASA 1500 mg/kg/day, 12 weeks", "quoted_text": "Mice. Mice were fed either NCD (15 kcal % fat) or HFD (Research Diets, 60 kcal % fat, irradiated) starting at 6 weeks of age. […] Mice were maintained in a pathogen-free, temperature-controlled environment on a 12-hour light and dark cycle. All mice used in comparative studies were male, age-matched, and litter mates where possible. […] We measured body weights, GTTs, ITTs, serum insulin, and fat cell diameter as previously described (Winer et al., 2009a). All GTTs were performed with a 1.5 g/kg glucose i.p. injection unless indicated otherwise."}, "gut epithelial barrier": {"system": "gut epithelial barrier", "details": "models of IBD (Di Paolo et al., 1996; Liu et al., 2009); cited from earlier work"}, "endotoxin, anti-LPS IgG": {"system": "endotoxin, anti-LPS IgG", "assay": "Endotoxin and anti-LPS IgG measurements", "format": "in vivo, mice", "details": "HFD vs HFD 5-ASA, 14 weeks", "description": "We measured endotoxin levels in the serum and adipose tissue using Pyrogene Recombinant C endotoxin detection fluorescence kit (Lonza Inc.). We measured mouse serum anti-LPS IgG antibody levels with a commercially available kit (Chrondrex Inc.)."}, "[1]": {"system": "bowel and VAT immune cell populations", "assay": "Immune cell populations in NCD vs NCD 5-ASA mice", "format": "in vivo", "details": "bowels or VATs, NCD 5-ASA vs untreated NCD mice", "description": "(§1) Isolation of bowel immune cells. For isolation of small intestine lamina propria immune cells, we used the protocol described by Fritz et al (Fritz et al., 2012), and processed approximately 10 cm from the distal end of the small intestine (jejunum and ileum). For the isolation of colonic lamina propria immune cells, we used the protocol described by Geddes et al (Geddes et al., 2011). Following lamina propria isolations, we passed immune cells through 70 μm strainers, and used them for flow cytometry.\nWe isolated VAT-associated immune cells as previously described (Winer et al., 2009a).\n(§2) We stained single cell suspensions for 30 min on ice with commercial antibodies. Flow cytometry antibodies including CD45.2 (104), CD3 (145-2C11), CD4 (GK1.5), CD8 (53-6.7), CD25 (PC61), γδTcR (GL3), Foxp3 (150D), IL-17 (TC11-18H10.1), IFNγ XMG1.2), α4β7 (DATK32), CCR9 (CW-1.2), CD11b (M1/70), F4/80 (BM8), CD11c (N418), CD206 (C068C2), Gr-1 (RB6-8C5), IL-7Rα (A7R34), B220 (RA3-6B2), Thy1.2 (30-H12), NKp46 (29A1.4), and Sca-1 (D7) were purchased from Biolegend. Intracellular staining was performed using a Foxp3 staining buffer kit (eBioscience). We acquired data on a Fortessa flow cytometer (BD Biosciences) and analyzed it with FlowJo software (Tree Star). We gated ILCs as described (Kirchberger et al., 2013)."}, "[2]": {"assay": "HPLC of 5-ASA in serum and tissues with internal 4-ASA standard", "format": "in vivo, mice", "details": "mouse, colon and small bowel relative to serum, oral", "quoted_text": "We cut frozen tissues and homogenized them in 80% methanol (30 mg/mL) on ice. We spiked 100 μL aliquots with 4-ASA used as internal standard (200 ng), and 400 μL 80% methanol were added. For plasma, we thawed samples from −80° C. at room temperature. 75 μL plasma were spiked with 4-ASA used as internal standard (200 ng) and mixed with 300 μL of methanol for 5 minutes (vortex). Samples were centrifuged (20,000×g, 15 minutes, 4° C.). Supernatants were separated from the pellets and taken to dryness under nitrogen gas in the fumehood. We then reconstituted the dry residues in 200 μL of mobile phase, vortexed for 1 minute and centrifuged at 20,000×g for 15 minutes. The supernatants were transferred to autosampler vials fitted with inserts and sealed caps. Aliquots of the solution were injected into HPLC for analysis.\nWe performed high performance liquid chromatography using a Dionex Ultimate 3000 system equipped with a binary pump, a built-in autosampler, a photodiode array and a RF 2000 fluorescence detector. […] The analytes were monitored by fluorescence (excitation: 337 nm and emission: 432 nm) and by (UV235 nm). We analyzed the chromatograms produced using Chromeleon version 6.8 software."}, "[3]": {"system": "colon and small bowel lamina propria T cells", "assay": "Flow cytometry of colon and small bowel lamina propria T cells, HFD or HFD 5-ASA", "format": "in vivo, mice", "details": "HFD vs HFD 5-ASA 1500 mg/kg/day, 16 weeks", "description": "as §1, §2"}, "[4]": {"system": "spleen and blood immune cells, serum cytokines", "assay": "Systemic immune function during HFD feeding (spleen, blood, serum cytokines)", "format": "in vivo, mice", "details": "HFD vs HFD 5-ASA", "protocol": "as §2\nWe measured serum cytokines by Luminex Multiplex cytokine assay (Millipore, run by the UHN Microarray Center), and quantified IL-10 and IFN-γ in supernatants of anti-CD3/CD28-stimulated splenocytes or bowel immune cells (Winer et al., 2009b) by ELISA (Biolegend)."}, "splenic T cells": {"system": "splenic T cells", "assay": "In vitro IFNγ secretion, anti-CD3/CD28-activated splenic T cells", "format": "cell-based", "details": "splenic T cells from HFD-fed WT mice, 72 hour; 5-ASA 0.1 mM", "protocol": "To measure the effect of IFNγ on tight-junction gene expression, we treated MODE-K cells with recombinant mouse IFNγ (Biolegend). We purified bulk dendritic cells and T cells from murine small bowels and spleens using a negative selection DC or T cell isolation kit (Stem Cell Technologies). We plated T cells at 5×10^5 cells/well with plate-bound anti-CD3/CD28 (1 μg/ml, Biolegend). […] We collected supernatants for cytokine measurements after 72 hour incubation. […] After 24 hours, we washed the cells with PBS and co-cultured them (1×10^4 cells/well) with OVA323-339 peptide and OT-II splenic or small bowel T cells (5×10^4 cells/well) for 48 hours. Supernatants were collected at 48 hours for cytokine measurement. We measured serum cytokines by Luminex Multiplex cytokine assay (Millipore, run by the UHN Microarray Center), and quantified IL-10 and IFN-γ in supernatants of anti-CD3/CD28-stimulated splenocytes or bowel immune cells (Winer et al., 2009b) by ELISA (Biolegend)."}, "HFD-fed C57BL/6 mice": {"system": "HFD-fed C57BL/6 mice", "assay": "Metabolic studies, mice fed HFD or HFD 5-ASA from 6 weeks of age (preventative)", "format": "in vivo", "protocol": "Mice. Mice were fed either NCD (15 kcal % fat) or HFD (Research Diets, 60 kcal % fat, irradiated) starting at 6 weeks of age. All studies were performed under the approval of Animal User Protocols by the Animal Care Committee at the University Health Network. Mice were maintained in a pathogen-free, temperature-controlled environment on a 12-hour light and dark cycle. All mice used in comparative studies were male, age-matched, and litter mates where possible. […] We confirmed T cell-specific floxing of the PPARγ gene in Lck-Cre+ PPARγfl/fl mice by qPCR with a minimum of at least 90% reduction in PPARγ expression. […] We measured body weights, GTTs, ITTs, serum insulin, and fat cell diameter as previously described (Winer et al., 2009a). All GTTs were performed with a 1.5 g/kg glucose i.p. injection unless indicated otherwise. We fixed VAT, colons and small bowel ileums, from mice for 48 h in 10% buffered formalin before processing and hematoxylin/eosin staining. We enumerated crown-like structures (CLSs) in VAT by counting the number of adipocytes completely surrounded by immune cells identified on hematoxylin/eosin staining per 100× low power field. Analysis of histochemical stains was performed in a blinded fashion by two certified pathologists (S.W. and D.W.)."}, "[5]": {"details": "HFD vs HFD 5-ASA 1500 mg/kg/day in diet, after 12-14 weeks"}, "[6]": {"details": "HFD vs HFD 5-ASA 1500 mg/kg/day, 14 weeks"}}}
{"compound": "Nc1ccc(O)c(C(=O)O)c1", "note": "[5-ASA, 5-aminosalicylic acid]", "values": [{"measurement": "IR", "setting": "NCD-fed C57BL/6 mice", "value": "little or no difference"}, {"measurement": "body weight", "setting": "NCD-fed C57BL/6 mice", "value": "little or no difference"}, {"measurement": "fasting glucose", "setting": "NCD-fed C57BL/6 mice", "value": "little or no difference"}, {"measurement": "glucose tolerance", "setting": "NCD-fed C57BL/6 mice", "value": "little or no difference"}, {"measurement": "intactness of the gut epithelial barrier", "setting": "gut epithelial barrier", "value": "beneficial effects"}, {"measurement": "IgG responses to LPS (serum anti-LPS IgG)", "setting": "endotoxin, anti-LPS IgG", "value": "markedly diminished"}, {"measurement": "VAT endotoxin levels", "setting": "endotoxin, anti-LPS IgG", "value": "trended lower"}, {"measurement": "serum endotoxin", "setting": "endotoxin, anti-LPS IgG", "value": "reduced"}, {"measurement": "significant anti-inflammatory effects on immune cell populations", "setting": "[1]", "value": "not seen"}, {"measurement": "Kp", "setting": "[2]", "value": "~20"}, {"measurement": "IFNγ-secreting CD8+ T cells", "setting": "[3]; colon and small bowel", "value": "reduction"}, {"measurement": "IL-17-secreting γδ T cells", "setting": "[3]; colon and small bowel", "value": "reduction"}, {"measurement": "Th1 cells", "setting": "[3]; colon and small bowel", "value": "reduction"}, {"measurement": "Tregs", "setting": "[3]; small bowel", "value": "significant increase"}, {"measurement": "circulating immune cell polarity in the blood", "setting": "[4]; 14 weeks", "value": "no effects"}, {"measurement": "immune cell populations in the spleen", "setting": "[4]; 14 weeks", "value": "no effects"}, {"measurement": "serum levels of cytokines", "setting": "[4]; Luminex, 23 cytokines, 14 weeks", "value": "mostly unchanged"}, {"measurement": "serum RANTES", "setting": "[4]; Luminex, 14 weeks", "value": "significant but small increase"}, {"measurement": "serum TNFα", "setting": "[4]; Luminex, 14 weeks", "value": "reduction"}, {"measurement": "stimulated spleen immune cell cytokine secretion", "setting": "[4]; cultured splenocytes, anti-CD3/CD28 48 hrs", "value": "no effects"}, {"measurement": "IFNγ production", "setting": "splenic T cells", "value": "not"}, {"measurement": "glucose tolerance", "setting": "HFD-fed C57BL/6 mice; 5-ASA dose range 150 mg/kg/day up to 1500 mg/kg/day in mice", "value": "beneficial effects"}, {"measurement": "liver steatosis", "setting": "HFD-fed C57BL/6 mice; HFD vs HFD 5-ASA 1500 mg/kg/day in diet", "value": "reduced"}, {"measurement": "VAT weight", "setting": "HFD-fed C57BL/6 mice; [5]", "value": "no significant difference"}, {"measurement": "adipocyte size", "setting": "HFD-fed C57BL/6 mice; [5]", "value": "no significant difference"}, {"measurement": "body weight", "setting": "HFD-fed C57BL/6 mice; [5]", "value": "no significant difference"}, {"measurement": "number of crown-like structures in VAT", "setting": "HFD-fed C57BL/6 mice; [5]", "value": "no significant difference"}, {"measurement": "organ weights", "setting": "HFD-fed C57BL/6 mice; [5]", "value": "no significant difference"}, {"measurement": "fasting glucose", "setting": "HFD-fed C57BL/6 mice; [6]", "value": "significant improvements"}, {"measurement": "fasting insulin", "setting": "HFD-fed C57BL/6 mice; [6]", "value": "significant improvements"}, {"measurement": "glucose tolerance (GTT)", "setting": "HFD-fed C57BL/6 mice; [6]", "value": "significant improvements"}, {"measurement": "insulin tolerance (ITT)", "setting": "HFD-fed C57BL/6 mice; [6]", "value": "significant improvements"}, {"measurement": "effects on metabolic disease (GTT, ITT)", "setting": "HFD-fed C57BL/6 mice; lower dose 150 mg/kg/day in HFD, 24 weeks", "value": "beneficial effects"}]}
